In ChEMBL document CHEMBL6078642, “Design, Synthesis, and Activity Evaluation of BRD4 PROTAC Based on Alkenyl Oxindole-DCAF11 Pair” (J Med Chem, 2024):
The source made the active and inactive calls. The rule behind the calls is not given here.

Key:
MDA-MB-231 [1] = test: Induction of apoptosis in human MDA-MB-231 cells assessed as increase in cleaved caspase-7 level by immunoblot analysis; assay type: functional, cell-based
MDA-MB-231 [2] = test: Induction of apoptosis in human MDA-MB-231 cells assessed as increase in cleaved PARP level by immunoblot analysis; assay type: functional, cell-based
MDA-MB-231 [3] = test: Antiproliferative activity against human MDA-MB-231 cells assessed as reduction in cell viability incubated for 2 days by CCK8 assay; assay type: functional, cell-based; details: MDA-MB-231, 48 h
MDA-MB-231 [4] = test: Antiproliferative activity against human MDA-MB-231 cells assessed as reduction in cell viability incubated for 2 days in presence of tert-butyl 2-(4-methyl-2-((2-oxo-6-(trifluoromethyl)indolin-3-ylidene)methyl)phenoxy)acetate by CCK8 assay; assay type: functional, cell-based; details: MDA-MB-231, 48 h
MDA-MB-231 [5] = test: Induction of BRD4 degradation in human MDA-MB-231 cells at 10 uM incubated for 12 hrs by immunoblot analysis; assay type: cell-based
MDA-MB-468 [6] = test: Antiproliferative activity against human MDA-MB-468 cells assessed as reduction in cell viability incubated for 2 days by CCK8 assay; assay type: functional, cell-based; details: MDA-MB-468, 48 h
MDA-MB-468 [7] = test: Antiproliferative activity against human MDA-MB-468 cells assessed as reduction in cell viability incubated for 2 days in presence of tert-butyl 2-(4-methyl-2-((2-oxo-6-(trifluoromethyl)indolin-3-ylidene)methyl)phenoxy)acetate by CCK8 assay; assay type: functional, cell-based; details: MDA-MB-468, 48 h

Q: `Cc1sc2c(c1C)C(c1ccc(Cl)cc1)=N[C@@H](CC(=O)O)c1nnc(C)n1-2` was tested. Which Activity (MDA-MB-231 [1]) did it give?
A: inactive

Q: And the Activity (MDA-MB-231 [2])?
A: inactive

Q: And the IC50 (MDA-MB-231 [3])?
A: 5.13 µM

Q: What about the IC50 (MDA-MB-231 [4]) of the same molecule?
A: 3.71 µM

Q: What about the Activity (MDA-MB-231 [5]) of the same molecule?
A: inactive

Q: And the IC50 (MDA-MB-468 [6])?
A: 25.9 µM

Q: What about the IC50 (MDA-MB-468 [7]) of the same molecule?
A: 10 µM
